Reference: patent US20060069132A1, “Azolecarboxamide herbicides” (priority 2004, published 2006)
Like-named read-outs stand apart in the source and are kept apart here.

How the values were obtained:
Surinam grass = experiment: Test B pre-/postemergence herbicide test; format: in vivo, Urochloa decumbens; settings: Urochloa decumbens; for pest or weed control at 500 g/ha: 500 g ai/ha
Summary of the method: (§1)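 Test chemicals in a non-phytotoxic solvent mixture with surfactant were applied preemergence to seeded species and postemergence to plants 2-18 cm tall (1- to 4-leaf stage); rice and barnyardgrass were also tested in a flooded paddy at the 2-leaf stage. Visual rating versus controls after 13-15 days in greenhouse, scale 0 (no effect) to 100 (complete control).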

cocklebur = experiment: Test B pre-/postemergence herbicide test; format: in vivo, Xanthium strumarium; settings: Xanthium strumarium; for pest or weed control at 500 g/ha: 500 g ai/ha
Summary of the method: (§2)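 Formulation: non-phytotoxic solvent mix with surfactant. Timing: preemergence on seed and postemergence on 2–18 cm plants, applied concurrently. Readout after 13–15 d greenhouse: visual 0–100 control rating against controls.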

corn = experiment: Test B pre-/postemergence herbicide test; format: in vivo, Zea mays; settings: Zea mays
Summary of the method: as §1

large crabgrass = experiment: Test B pre-/postemergence herbicide test; format: in vivo, Digitaria sanguinalis; settings: Digitaria sanguinalis; for pest or weed control at 500 g/ha: 500 g ai/ha
Summary of the method: as §1

giant foxtail = experiment: Test B pre-/postemergence herbicide test; format: in vivo, Setaria faberi; settings: Setaria faberi, 336 h; for pest or weed control at 125 g/ha: 125 g ai/ha; for pest or weed control at 500 g/ha: 500 g ai/ha
Summary of the method: as §1

lambsquarters = experiment: Test B pre-/postemergence herbicide test; format: in vivo, Chenopodium album; settings: Chenopodium album, 336 h; for pest or weed control at 125 g/ha: 125 g ai/ha; for pest or weed control at 500 g/ha: 500 g ai/ha
Summary of the method: as §1

morningglory = experiment: Test B pre-/postemergence herbicide test; format: in vivo, Ipomoea coccinea; settings: Ipomoea, 336 h; for pest or weed control at 125 g/ha: 125 g ai/ha; for pest or weed control at 500 g/ha: 500 g ai/ha
Summary of the method: as §2

pigweed = experiment: Test B pre-/postemergence herbicide test; format: in vivo, Amaranthus retroflexus; settings: Amaranthus retroflexus, 336 h; for pest or weed control at 500 g/ha: 500 g ai/ha
Summary of the method: as §1

velvetleaf = experiment: Test B pre-/postemergence herbicide test; format: in vivo, Abutilon theophrasti; settings: Abutilon theophrasti, 336 h; for pest or weed control at 500 g/ha: 500 g ai/ha
Summary of the method: as §1

blackgrass = experiment: Test B postemergence herbicide test; format: in vivo, Alopecurus myosuroides; settings: Postemergence, scale 0 (no effect) to 100 (complete control)
Summary of the method: (§3)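 Scale 0–100: zero equals no visible effect, 100 complete control, judged by eye relative to controls. Timing: 13 to 15 days in greenhouse post-treatment. Growth stage at spraying: two leaves (paddy) or one to four leaves, 2–18 cm (postemergence).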

wheat = experiment: Test B postemergence herbicide test; format: in vivo, Triticum aestivum; settings: Postemergence, 500 g ai/ha; visual rating after 13 to 15 days, scale 0 (no effect) to 100 (complete control)
Summary of the method: (§4)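 Greenhouse test; postemergence application to plants at 1–4 leaves (2–18 cm); paddy species at 2 leaves; evaluated visually vs controls at 13–15 days; scale 0–100 (100 = complete control).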

wild oat = experiment: Test B postemergence herbicide test; format: in vivo, Avena fatua; settings: Postemergence, scale 0 (no effect) to 100 (complete control)
Summary of the method: as §4

rice = experiment: Test B flooded paddy test; format: in vivo, Oryza sativa; settings: Oryza sativa, 336 h, 1000 g ai/ha, visual rating, scale 0 to 100 (0 no effect, 100 complete control), 13 to 15 days, read-out: Rice plant response rating
Summary of the method: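 Paddy species grown to the 2-leaf stage under flooding; blackgrass sprayed postemergence at 2–18 cm (1- to 4-leaf stage). Plants kept in a greenhouse for 13 to 15 days, then visually rated against controls on 0 (no effect) to 100 (complete control).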

[1] = tested on: small flower umbrella sedge; experiment: Test B flooded paddy test; format: in vivo, Cyperus difformis; settings: Cyperus difformis, 336 h, 1000 g ai/ha, visual rating, scale 0 to 100 (0 no effect, 100 complete control), 13 to 15 days, read-out: Sedge, Umbrella plant response rating
Summary of the method: as §3

barnyardgrass = experiment: Test B flooded paddy test; format: in vivo, Echinochloa crus-galli; settings: Echinochloa crus-galli, 336 h, 1000 g ai/ha, visual rating, scale 0 to 100 (0 no effect, 100 complete control), 13 to 15 days, read-out: Barnyardgrass plant response rating
Summary of the method: as §3

[2] = 500 g ai/ha, visual rating after 13 to 15 days

How did the pest or weed control at 500 g/ha (Surinam grass; post-emergence, Postemergence, visual rating after 13 to 15 days, scale 0 (no effect) to 100 (complete control), read-out: Plant response rating, Surinam Grass) turn out when `CCn1nc(C(C)(C)C)cc1C(=O)Nc1cccc(C(=O)NCC(F)(F)F)c1` [Compound 43, 3-(1,1-dimethylethyl)-1-ethyl-N-[3-[[(2,2,2-trifluoroethyl)amino]carbonyl]-phenyl]-1H-pyrazole-5-carboxamide] was run?
Its pest or weed control at 500 g/ha is 80%.

What about the pest or weed control at 500 g/ha (Surinam grass; pre-emergence, Preemergence, scale 0 to 100, read-out: Surinam Grass plant response rating) of the same compound?
Its pest or weed control at 500 g/ha is 50%.

And the pest or weed control at 125 g/ha (Surinam grass; pre-emergence, preemergence, 125 g ai/ha, 0 to 100 scale, 0 is no effect, 100 is complete control, read-out: Plant response rating, Surinam Grass)?
Its pest or weed control at 125 g/ha is 30%.

What about the pest or weed control at 125 g/ha (cocklebur; post-emergence, Postemergence, 125 g ai/ha, scale 0 (no effect) to 100 (complete control), read-out: Cocklebur plant response rating) of the same compound?
Its pest or weed control at 125 g/ha is 10%.

What about the pest or weed control at 500 g/ha (cocklebur; post-emergence, Postemergence, visual rating after 13 to 15 days, scale 0 (no effect) to 100 (complete control), read-out: Plant response rating, Cocklebur) of the same compound?
The pest or weed control at 500 g/ha was 90%.

And the pest or weed control at 500 g/ha (cocklebur; pre-emergence, Preemergence, scale 0 to 100, read-out: Cocklebur plant response rating)?
The pest or weed control at 500 g/ha was 10%.

What about the plant injury at 125 g/ha (corn; post-emergence, Postemergence, 125 g ai/ha, scale 0 (no effect) to 100 (complete control), read-out: Corn plant response rating) of the same compound?
The plant injury at 125 g/ha was 20%.

What about the Corn plant response rating (crop injury, 0 = no effect, 100 = complete kill) at 500 g/ha (corn; post-emergence, Postemergence, 500 g ai/ha, visual rating after 13 to 15 days, scale 0 (no effect) to 100 (complete control)) of the same compound?
Its Corn plant response rating (crop injury, 0 = no effect, 100 = complete kill) at 500 g/ha is 30%.

What about the plant injury at 500 g/ha (corn; pre-emergence, Preemergence, 500 g ai/ha, scale 0 to 100, read-out: Corn plant response rating) of the same compound?
Its plant injury at 500 g/ha is 10%.

What about the pest or weed control at 125 g/ha (large crabgrass; post-emergence, Postemergence, 125 g ai/ha, scale 0 (no effect) to 100 (complete control), read-out: Crabgrass, Large plant response rating) of the same compound?
The pest or weed control at 125 g/ha was 90%.

And the pest or weed control at 500 g/ha (large crabgrass; post-emergence, Postemergence, visual rating after 13 to 15 days, scale 0 (no effect) to 100 (complete control), read-out: Plant response rating, Crabgrass, Large)?
The pest or weed control at 500 g/ha was 90%.

What about the pest or weed control at 500 g/ha (large crabgrass; pre-emergence, Preemergence, scale 0 to 100, read-out: Crabgrass, Large plant response rating) of the same compound?
Its pest or weed control at 500 g/ha is 100%.

And the pest or weed control at 125 g/ha (giant foxtail; post-emergence, Postemergence, scale 0 (no effect) to 100 (complete control), read-out: Foxtail, Giant plant response rating)?
The pest or weed control at 125 g/ha was 30%.

What about the pest or weed control at 500 g/ha (giant foxtail; post-emergence, Postemergence, visual rating after 13 to 15 days, scale 0 (no effect) to 100 (complete control), read-out: Plant response rating, Foxtail, Giant) of the same compound?
The pest or weed control at 500 g/ha was 50%.

What about the pest or weed control at 500 g/ha (giant foxtail; pre-emergence, Preemergence, scale 0 to 100, read-out: Foxtail, Giant plant response rating) of the same compound?
Its pest or weed control at 500 g/ha is 80%.

And the pest or weed control at 125 g/ha (giant foxtail; pre-emergence, preemergence, 0 to 100 scale, 0 is no effect, 100 is complete control, read-out: Plant response rating, Foxtail, Giant)?
Its pest or weed control at 125 g/ha is 10%.

What about the pest or weed control at 125 g/ha (lambsquarters; post-emergence, Postemergence, scale 0 (no effect) to 100 (complete control), read-out: Lambsquarters plant response rating) of the same compound?
The pest or weed control at 125 g/ha was 90%.

What about the pest or weed control at 500 g/ha (lambsquarters; post-emergence, Postemergence, visual rating after 13 to 15 days, scale 0 (no effect) to 100 (complete control), read-out: Plant response rating, Lambsquarters) of the same compound?
The pest or weed control at 500 g/ha was 90%.

What about the pest or weed control at 500 g/ha (lambsquarters; pre-emergence, Preemergence, scale 0 to 100, read-out: Lambsquarters plant response rating) of the same compound?
Its pest or weed control at 500 g/ha is 100%.

And the pest or weed control at 125 g/ha (lambsquarters; pre-emergence, preemergence, 0 to 100 scale, 0 is no effect, 100 is complete control, read-out: Plant response rating, Lambsquarters)?
Its pest or weed control at 125 g/ha is 90%.

What about the pest or weed control at 125 g/ha (morningglory; post-emergence, Postemergence, scale 0 (no effect) to 100 (complete control), read-out: Morningglory plant response rating) of the same compound?
The pest or weed control at 125 g/ha was 80%.

What about the pest or weed control at 500 g/ha (morningglory; post-emergence, Postemergence, visual rating after 13 to 15 days, scale 0 (no effect) to 100 (complete control), read-out: Plant response rating, Morningglory) of the same compound?
The pest or weed control at 500 g/ha was 100%.

And the pest or weed control at 500 g/ha (morningglory; pre-emergence, Preemergence, scale 0 to 100, read-out: Morningglory plant response rating)?
Its pest or weed control at 500 g/ha is 10%.

What about the pest or weed control at 125 g/ha (morningglory; pre-emergence, preemergence, 0 to 100 scale, 0 is no effect, 100 is complete control, read-out: Plant response rating, Morningglory) of the same compound?
Its pest or weed control at 125 g/ha is 0%.

What about the pest or weed control at 500 g/ha (pigweed; post-emergence, Postemergence, visual rating after 13 to 15 days, scale 0 (no effect) to 100 (complete control), read-out: Plant response rating, Pigweed) of the same compound?
The pest or weed control at 500 g/ha was 100%.

What about the pest or weed control at 500 g/ha (pigweed; pre-emergence, Preemergence, scale 0 to 100, read-out: Pigweed plant response rating) of the same compound?
The pest or weed control at 500 g/ha was 100%.

And the pest or weed control at 125 g/ha (pigweed; pre-emergence, preemergence, 125 g ai/ha, 0 to 100 scale, 0 is no effect, 100 is complete control, read-out: Plant response rating, Pigweed)?
Its pest or weed control at 125 g/ha is 100%.

And the pest or weed control at 500 g/ha (velvetleaf; post-emergence, Postemergence, visual rating after 13 to 15 days, scale 0 (no effect) to 100 (complete control), read-out: Plant response rating, Velvetleaf)?
Its pest or weed control at 500 g/ha is 90%.

What about the pest or weed control at 500 g/ha (velvetleaf; pre-emergence, Preemergence, scale 0 to 100, read-out: Velvetleaf plant response rating) of the same compound?
The pest or weed control at 500 g/ha was 100%.

And the pest or weed control at 125 g/ha (velvetleaf; pre-emergence, preemergence, 125 g ai/ha, 0 to 100 scale, 0 is no effect, 100 is complete control, read-out: Plant response rating, Velvetleaf)?
The pest or weed control at 125 g/ha was 30%.

And the pest or weed control at 125 g/ha (blackgrass; Alopecurus myosuroides, post-emergence, 336 h, 125 g ai/ha, read-out: Blackgrass plant response rating)?
Its pest or weed control at 125 g/ha is 20%.

And the “Plant response rating, Blackgrass” value (blackgrass; [2])?
The value was 20.

And the “Plant response rating, Wheat” value (wheat)?
The value was 30.

What about the pest or weed control at 125 g/ha (wild oat; Avena fatua, post-emergence, 336 h, 125 g ai/ha, read-out: Oat, Wild plant response rating) of the same compound?
Its pest or weed control at 125 g/ha is 10%.

And the “Plant response rating, Oat, Wild” value (wild oat; [2])?
Its value is 30.

And the plant injury at 1000 g/ha (rice)?
Its plant injury at 1000 g/ha is 50%.

What about the pest or weed control at 1000 g/ha [1] of the same compound?
Its pest or weed control at 1000 g/ha is 70%.

What about the pest or weed control at 1000 g/ha (barnyardgrass) of the same compound?
The pest or weed control at 1000 g/ha was 80%.
